Test results from patent US20050101002A1, “Process for production of low temperature active alkaline protease from a deep-sea fungus” (COUNCIL OF SCIENTIFIC & INDUSTRIAL RESEARCH, priority 2003, published 2005).
Entries after “also recorded” stand apart in the source; their conditions may differ.

Tested on: protease of Aspergillus sp. MTCC 5102
Assay: Protease assayed in the presence of EDTA, PMSF, HgCl2
Type: biochemical
Details: for Inhibition of protease activity (in words): assayed in the presence of the additive
Experimental: The said fungus Aspergillus sp. MTCC 5102 is grown in malt extract broth containing 2% malt extract and 0.3% peptone in sea water. The 7-day old fungal mat obtained this way was macerated and used as a starter inoculum for the experimental cultures containing glucose or cellulose at a concentration of 1% (w/v). Casein, spray-dried dairy whitener, soybean meal, molasses or corn steep liquor at a 1% concentration was used as the organic nitrogen source. The Czapek Dox broth to which the above mentioned nitrogen-containing substrates were added independently, contained 10 g glucose, 2 g NaNO3, 1 g K2HPO4, 0.5 g MgSO4, 0.5 g KCl and 0.01 g Fe2SO4 L^−1 medium. The pH of the medium was adjusted to 7.0 or 9.0. This medium was prepared with distilled water or sea water. The cultures were grown as shallow static cultures for 4-6 days. The cell-free clear supernatant obtained after filtration through GF/F filters followed by 0.22 μm Nuclepore filters was used as the source of alkaline protease. Protease activity was measured using Azocasein (Sigma Chemicals, Mo, USA) at 2% concentration. Azocasien Units (ACU) released at various temperatures and pH combinations were measured at 440 nm and expressed as an increase in absorbance by 0.001 in 1 minute (Alfredsson, G. A, Gudmundsson H. M., Xiang J. Y., Kristjansson M. M. 1995, Subtilisin-like serine proteases from psychrophilic marine bacteria. J. Mar. Biotech. 3: 71-72). Substrate and enzyme blanks were maintained for all the assays. All the assays were run in triplicates.
The said fungus Aspergillus sp. MTCC 5102 was grown as described in Example 1 and the clear supernatant was used for testing whether the protease enzyme was serine or metalloprotease. For this purpose the enzyme was assayed in the presence of 50 mM […] (EDTA), 2 mM phenylmethylsulfonyl fluoride (PMSF) and 200 μM mercuric chloride (HgCl2).

Structure (SMILES) | % inhibition (50 mM) [%] | Residual specific activity (%) (50 mM) | Inhibition of protease activity (in words) | % inhibition (200 μM) [%] | Residual specific activity (%) (200 μM) | % inhibition (2 mM) [%] | Residual specific activity (%) (2 mM)
O=C(O)CN(CCN(CC(=O)O)CC(=O)O)CC(=O)O [EDTA, ethylenediamine tetraacetic acid] | 6 | 94 | not inhibited; also recorded: no inhibition of activity |  |  |  | 
[Cl][Hg][Cl] [HgCl2, mercuric chloride] |  |  | not inhibited | 14 | 86 |  | 
O=S(=O)(F)Cc1ccccc1 [PMSF, phenylmethylsulfonyl fluoride] |  |  | totally inhibited; also recorded: inhibition of the activity |  |  | 100 | 0
